{"source": "patent US20080014261A1", "about": "“Non-narcotic biphasic release compositions and methods for treatment of coughing, sneezing, rhinorrhea, and/or nasal obstruction” (priority 2006, published 2008)", "origin": "cited, not measured here", "conditions": "in vivo", "data": [{"smiles": "COc1ccccc1OCC(O)CO", "note": "(stereo not shown) [Guaifenesin, 3-(2-methoxyphenoxy)-1,2 propanediol]", "values": [{"measurement": "plasma half life", "value": "one"}]}]}
